# Active and inactive are the calls of the source. No rule for the calls is given here.
# Molecular target: Toxin B (TcdB) glycohydrolase, Clostridioides difficile 630
# Experiment: TcdB glycohydrolase inhibitors, dose response, biochemical, cherry-pick, plate reader (AID 720512)
# Settings: recombinant TcdB glycohydrolase activity
row,SMILES,AC50
1,CN(C)CCNC(=O)c1cc2c(s1)-c1ccc(Cl)cc1SC2,> 39 µM (inactive)

# Same assay, conditions: recombinant TcdB glycohydrolase activity, at 10 µM (top of the series)
row,SMILES,"activity change, negative = inhibition"
1,O=C(COc1cccc(C(F)(F)F)c1)N1CCN(c2ccc(O)cc2)CC1,inactive

# Same assay, conditions: recombinant TcdB glycohydrolase activity, at 19.5 µM (top of the series)
row,SMILES,"activity change, negative = inhibition"
1,CCOc1ccccc1-n1c(C)nc2cc(C(=O)O)ccc21,inactive
2,O=C(NCc1nnc2c(C(F)(F)F)cc(Cl)cn12)c1cccnc1,inactive
3,COc1nc(C)cc(C)c1S(=O)(=O)c1ccc(Cl)cc1,inactive
4,O=c1[nH]nc(-c2ccc(F)cc2)cc1Cc1ccccc1,inactive
5,CC12CCC(=O)N1C(C(=O)OCc1c(Cl)cccc1Cl)CS2 (stereo unspecified),inactive
6,Cc1ccc(SCCC(=O)N/N=C/c2cccnc2)cc1,inactive
7,CC(=O)Nc1cccc(NC(=O)c2ccc(Br)cc2)c1,inactive
8,CCOC(=O)c1sc(=S)[nH]c1C,inactive
9,Cc1ccc(-c2nc3ccc([N+](=O)[O-])cc3[nH]2)cc1,inactive
10,C[C@@H]1CN([C@H](C)CO)S(=O)(=O)c2ccc(-c3ccncc3)cc2O[C@@H]1CN(C)Cc1ccc(Oc2ccccc2)cc1,inactive
11,COc1ccc(CNC(=O)C2=CC(c3ccc(OC)cc3)=NS(=O)(=O)N2C)cc1,inactive
12,CNC(=O)C[C@H]1CC[C@@H]2[C@H](COc3ccc(NC(=O)c4ccc(OC)cc4)cc3C(=O)N2C)O1,inactive
13,CCN(CC)CCNC(=O)C1CCN(S(=O)(=O)c2c(C)noc2/C=C/c2ccccc2F)CC1,inactive
14,COc1ccc(/C=C2/C(=O)C(C)(C(C)C)CCC2C)cc1 (stereo unspecified),inactive
15,Cc1ccc(NC(=O)OC(C)N2CCCCC2)cc1NC(=O)OC(C)N1CCCCC1 (stereo unspecified),inactive
16,CCOc1ccccc1/C=C/c1onc(C)c1S(=O)(=O)N1CCC(C(=O)NC(C)C)CC1,inactive
17,O=C1COc2ccc(C(=O)COC(=O)CNS(=O)(=O)c3cccc(F)c3)cc2N1,inactive
18,C[C@H](CO)N1C[C@H](C)[C@@H](CN(C)C(=O)Nc2ccc(C(F)(F)F)cc2)Oc2c(cccc2N(C)C)C1=O,inactive
19,O=C(CSc1cccc2cccnc12)N/N=C/c1ccc(F)cc1,inactive
20,CNC(=O)C[C@@H]1CC[C@H]2[C@H](COc3ccc(NS(=O)(=O)c4ccccc4C)cc3C(=O)N2C)O1,inactive
21,O=C(Nc1cc(S(=O)(=O)N2CCOCC2)ccc1N1CCOCC1)c1ccccc1Cl,inactive
22,CCCNC(=O)C1(C)CCCN(C(=O)c2ccccc2OC(F)(F)F)C1 (stereo unspecified),inactive
23,CCCNC(=O)Nc1ccc2c(c1)C(=O)N(C)[C@H]1CC[C@H](CC(=O)NC3CCC3)O[C@@H]1CO2,inactive
24,Cc1ccc2ccc[n+](Cc3ccccc3)c2c1,inactive
25,CCN1CCN(C(=O)C2=CC(c3ccc(OC)cc3)=NS(=O)(=O)N2C)CC1,inactive

row,SMILES,"activity change, negative = inhibition"
1,C[C@H]1CN([C@@H](C)CO)C(=O)c2c(c3ccccc3n2C)-c2ccccc2CO[C@H]1CN(C)C,inactive
2,Cc1ccc(-c2csc(NC(=O)/C=C/c3ccco3)c2C(=O)O)cc1,inactive
3,O=C(NCc1cc(C(F)(F)F)cc(C(F)(F)F)c1)C1CC(c2c(Cl)cccc2Cl)=NO1 (stereo unspecified),inactive
4,Cc1ccc(Oc2c(CO)c(-c3ccccc3)nn2C)cc1,inactive
5,O=C(Nc1ccccc1F)N(Cc1ccc(F)cc1)Cc1nc2ccccc2c(=O)[nH]1,inactive
6,O=C(CSc1ccc2nnc(-c3ccc(F)cc3)n2n1)N1CCOCC1,inactive
7,Nc1ccc2c(c1)[nH]c(=O)c1cc(N)ccc12,inactive
8,CCC(C)NC(=O)CSc1nc2cc(S(=O)(=O)N3CCOCC3)ccc2n1CC (stereo unspecified),inactive
9,CC1CN=C(Nc2cccc(S(=O)(=O)N(C)C)c2)S1 (stereo unspecified),inactive
10,CCCSc1nc2c([nH]1)c(=O)n(C)c(=S)n2C,inactive
11,O=C(NCc1ccccc1)[C@@H]1CCCN1C(=O)[C@@H]1CCCN1C(=O)c1cccs1,inactive
12,COc1ccc(C(=O)Nc2ccc3c(c2)C(=O)N(C)[C@@H]2CC[C@H](CC(=O)NCC4CC4)O[C@@H]2CO3)cc1,inactive
13,C[C@@H]1CN([C@H](C)CO)C(=O)c2cccc(N(C)C)c2O[C@@H]1CN(C)C(=O)Nc1ccc(C(F)(F)F)cc1,inactive
14,CC(C)(Oc1ccc(Cl)cc1)C(=O)NC1CC1,inactive
15,Cc1cc(C)c(S(=O)(=O)c2ccc(Cl)cc2C)c(Cl)n1,inactive
16,O=C(C[C@H]1CC[C@H]2[C@@H](COC[C@@H](O)CN2Cc2ccccc2)O1)NCCc1ccccc1,inactive
17,O=C(CSc1cccc2cccnc12)N/N=C/c1ccc(O)cc1,inactive
18,Cn1cc(S(=O)(=O)CC(=O)N2CCCc3ccccc32)c2ccccc21,inactive
19,CCn1c(SCC(=O)OC)nnc1-c1ccccc1,inactive
20,Cc1ccc(C2=NS(=O)(=O)N(C)C(C(=O)NCc3cccs3)=C2)cc1,inactive
21,CN(CCN1CCOCC1)C(=O)CC1C(=O)NCCN1Cc1ccccc1C(F)(F)F (stereo unspecified),inactive
22,C[C@H](CO)N1C[C@H](C)[C@H](CN(C)Cc2ccc(Oc3ccccc3)cc2)Oc2cc(-c3ccncc3)ccc2S1(=O)=O,inactive
23,Oc1ccc(CCNc2ncnc3ccc(Cl)cc23)cc1,inactive
24,Cc1cnc(C(=O)OCC(=O)Nc2ccc(OCc3ccccc3)cc2)cn1,inactive
